Measured values as given in patent US11207424B2, “Methods and materials for increasing viral vector infectivity” (Mayo Foundation for Medical Education and Research, priority 2014, dated 2021).
Read-outs that look alike come from different tables or passages of the source.

Key:
HeLa cells [1] = format: cell-based; conditions: for increase in relative luciferase activity: 48 hours p.i.
HeLa cells [2] = test: GFP-expressing single-stranded AAV9 or scAAV9 vector transduction of HeLa cells, flow cytometry; format: cell-based; conditions: AAV9 CMV-GFP or scAAV9 CMV-GFP, 20 nM at 8 hours p.i., 48 hours p.i.
Protocol: FIG. 20 contains flow cytometry data plotting the infectivity of GFP-expressing single-stranded AAV9 or self-complementary (sc) AAV9 vectors. HeLa cells were infected by AAV9 CMV-GFP or scAAV9 CMV-GFP vectors, followed by treatment with 20 nM meayamycin B at 8 hours p.i. Flow cytometry analysis was performed to observe GFP-positive cell populations at 48 hours p.i.
To understand the mechanism of U2 snRNP-mediated block of AAV vector transduction, the optimal timing of meayamycin B treatment in relationship to AAV infection was further assessed. Pretreatment with the drug was not needed in order for it to enhance AAV9 infection (FIG. 18). […] To further map the optimal timing of U2 snRNP inhibition for AAV vector transduction, AAV2 and AAV9 vector-infected HeLa cells were treated with 5 nM meayamycin B at various time points and duration, and luciferase activity was assessed at 3 days p.i. […] In contrast, the effects of meayamycin B on AAV vector transduction were impaired when drug was added either 24 or 48 hours p.i. (FIG. 19). Thus, optimal enhancement of AAV vector transduction involved initiation of U2 snRNP inhibition prior to 24 hours post AAV vector infection.

[3] = test system: primary pancreatic islets; test: AAV8 CMV-GFP transduction of primary mouse pancreatic islets, live imaging; format: cell-based, C57B1/6 mice; conditions: 2 nM at 3 hours p.i., 48 and 72 hours p.i.
Protocol: FIG. 21 contains photographs of murine islet cells exposed to AAV8-GFP vectors along with meayamycin (2 nM). Images of GFP expressing islets were taken at two and three days post infection.
(§1) The ability of meayamycin B to boost AAV transduction in various cell types, relevant to gene therapy applications, was also tested. First, primary pancreatic islets were isolated from 8 week-old C57B1/6 mice, which were then transduced with AAV8 CMV-GFP and treated with 2 nM meayamycin B 3 hours p.i. Cells were monitored by BioStation Live Imaging for three days. […] (FIG. 21). The effects of meayamycin B on primary human pancreatic islets were then tested. Cells were infected with AAV2 or AAV9 CMV-Luc vectors and treated with 0, 2, 5, or 20 nM meayamycin B at 7 hours p.i. When luciferase expression was monitored at 48 hours p.i., a dose-dependent increase in luciferase expression in AAV2 and AAV9 infected cells (up to 44- and 24-fold increases in AAV9 and AAV2 transduction) was observed (FIG. 22). The effects on neonatal rat cardiomyocytes were tested next. Primary cardiomyocytes were infected with AAV2 CMV-Luc, followed by 0, 2, or 10 nM meayamycin B treatments at 3 hours post infection for 3 days. […] (FIG. 23).

[4] = test system: primary human pancreatic islets; test: AAV2 or AAV9 CMV-Luc transduction of primary human pancreatic islets, luciferase; format: cell-based; conditions: human islets, 0, 2, 5 or 20 nM at 7 hours p.i., 48 hours p.i.
Protocol: FIG. 22 contains graphs plotting relative light units in human islet cells 48 hours post infection with an AAV2 or AAV9 vector and following treatment with the indicate amount of meayamycin at 7 hours post infection. Luciferase expression was analyzed 48 hours p.i.
as §1

[5] = test system: neonatal rat cardiomyocytes; test: AAV2 CMV-Luc or scAAV9 CMV-GFP transduction of neonatal rat cardiomyocytes; format: cell-based
Protocol: FIG. 23 presents a graph plotting the relative luciferase activity and images of GFP-expressing cells in neonatal rat cardiomyocytes. Primary cardiomyocytes were infected with AAV2 CMV-Luc or scAAV9 CMV-GFP vectors and treated with meayamycin B, 3 hours p.i. Luciferase activity was measured 3 days p.i., while GFP expression was monitored at 5 days p.i.
as §1

[6] = test system: primary porcine hepatocytes; test: AAV2 or AAV9 CMV-Luc transduction of primary porcine hepatocytes, luciferase; format: cell-based; conditions: porcine hepatocytes, 0, 2 or 20 nM after 8 hours infection, 48 hours p.i.
Protocol: FIG. 24 contains graphs plotting the relative luciferase activity in porcine hepatocytes exposed to AAV2 or AAV9 CMV-Luc vectors. Cells were infected with AAV vectors for 8 hours, virus was then removed, and cells were treated with 0, 2, or 20 nM meayamycin B. Cells were harvested 48 hours p.i. for the luciferase assay.
as §1

[7] = test system: cancer cell lines and clinically relevant cell types, including pancreatic islets and hepatocytes; test: Summary statement: AAV vector transduction of cancer cell lines and clinically relevant cell types; format: cell-based; conditions: summary over cell types
Source text: Thus, genetic and/or pharmacological inhibition of U2 snRNP can be used to increase AAV vector transduction, which allows for efficient AAV vector gene therapy with reduced vector doses.

[8] = HeLa, 5 nM, drug 3 hours p.i., washed 1, 2 or 3 days after, luciferase at 3 days p.i.

Q: What does the source list for CC(/C=C/[C@H]1OC(C)(C)C[C@@]2(CO2)[C@@H]1O)=C\C[C@@H]1O[C@H](C)[C@H](NC(=O)/C=C\[C@H](C)OC(=O)N2CCOCC2)C[C@@H]1C [meayamycin B]?
A: increase in relative luciferase activity (HeLa cells [1]; HeLa cells pre-treated at increasing dose 3 hours before AAV9 vector infection): up to 49 fold; increase in AAV2 vector transduction (luciferase) (HeLa cells [1]; [8]): up to 380 fold; increase in AAV9 vector transduction (luciferase) (HeLa cells [1]; [8]): ≤ 359 fold; increase in relative luciferase activity (HeLa cells [1]; HeLa, 20 nM, treated 9 hours post AAV9 vector infection): 464 fold; effects on AAV vector transduction, late drug addition (HeLa cells [1]; HeLa, AAV2 and AAV9, drug added either 24 or 48 hours p.i.): impaired; effect of washout on AAV vector transduction enhancement (HeLa cells [1]; HeLa, AAV2 and AAV9, washout for 48 hours after 3-24 hours of treatment): did not strongly compromise its effects on AAV vector transduction; effect on relative luciferase activity (HeLa cells [1]; HeLa, AAV9, 20 nM, treatment at 33 hours p.i.): relatively weak effects; transduction by GFP-expressing vectors (number and fluorescent intensity of GFP-positive cells) (HeLa cells [2]): enhanced the transduction by both single-stranded and self-complementary AAV vectors; GFP expressing cells in islets vs control islets [3]: increased numbers of GFP expressing cells; increase in AAV2 transduction (luciferase expression) [4]: ≤ 24 fold; increase in AAV9 transduction (luciferase expression) [4]: up to 44 fold; vector transduction (luciferase) ([5]; AAV2 CMV-Luc, 2 nM at 3 hours post infection for 3 days): did not strongly improve vector transduction; increase in luciferase expression ([5]; AAV2 CMV-Luc, 10 nM at 3 hours post infection for 3 days): 72 fold; GFP expression ([5]; scAAV9 CMV-GFP, 10 nM, 5 days p.i.): notable increase in GFP expression; increase in AAV2 vector transduction (luciferase) [6]: ≤ 18 fold; increase in AAV9 vector transduction (luciferase) [6]: up to 57 fold; increase in vector transduction [7]: up to 1000 fold
